Test results reported in patent publication US20210161937A1, “ACTIVATION OF MITOCHONDRIAL UNCOUPLING AS A THERAPEUTIC INTERVENTION” (The Trustees of Columbia University in the City of New York, priority 2018, published 2021).
“Also recorded” adds a separate entry of the source.

Legend:
[1] = system: Drosophila; assay: CO2 respiration assay after mitochondrial drug feeding; type: in vivo; settings: 24 hr feeding; 500 μM Oligomycin, 1 mM rotenone, 5 mM 2,4 DNP, 0.5% stearate
Protocol: Measurement of CO2 production was performed similarly to Yatsenko et al. 2014. Briefly, 10 flies were placed in a sealed pipette tip-capillary respirometer (without anesthesia) containing a small amount of soda-lime. Respirometers were placed capillary side down in dH20 containing 0.1% blue food dye in a sealed TLC chamber placed in a 25° C. incubator. Empty sealed respirometers (containing no flies) were used to subtract blue dye background migration from experimental (fly-containing) samples. Flies were tested for 2 hr between at circadian timepoints, and CO2 production rate was indirectly determined by the amount of liquid movement up the capillary per hour after background subtraction. At least 6 groups of 10 flies were used per genotype for quantification for each condition. For mitochondrial drug feeding experiments, flies were placed on food containing the following compounds for 24 hr: 500 μM Oligomycin, 1 mM rotenone, 5 mM 2,4 DNP, 0.5% stearate, or ethanol vehicle controls.

[2] = system: posterior midgut, ISCs/EBs; assay: MitoSOX intestinal staining and esg+ cell quantification in posterior midguts of Esg-GAL4>GFP flies; type: in vivo, Drosophila; settings: Esg-GAL4>GFP flies fed DNP vs vehicle
Protocol: Flies were anesthetized on ice and intestines were dissected in cold Schneider's Medium (Thermo Fisher Scientific). Intestines were then incubated in 75 nM of TMRE (Thermo Fisher Scientific) in Schneider's Medium, for 10 min at room temperature. Samples were rinsed three times for 30 sec with a solution consisting of 20 nM of TMRE Schneider's Medium. For MitoSOX staining dissected intestines were immersed in 50 μM MitoSOX Red (Invitrogen) in Schneider's Medium for 5 min at room temp, then washed three times for 30 sec in Schneider's Medium. MitoSOX or TMRE samples were quickly mounted in Schneider's Medium containing 1.5 μg/mL Hoechst stain. Intestines were imaged within 20 min on a Ziess LSM800 confocal microscope. Z-stacks spanning the entire posterior midgut were taken. Quantification of TMRE or MitoSOX was performed using ImageJ in which mean fluorescent intensity values were quantified. TMRE foci were quantified using the ImageJ (Schneider et al. 2012) local maxima tool, using identical thresholding for all images. Foci number were normalized to the number of nuclei in the measured field of view. Quantification of MitoSOX output of ISCs/EBs was determined by mean intensity from individual Z-planes with regions of interest defined by esgGFP expression, cell size, and basal location within the intestinal epithelium. Mean intensity of MitoSOX fluorescence levels in all ISCs/EBs were averaged for each individual intestine. A minimum of 9 midguts were used for each genotype or drug treatment.

[3] = system: ISC tumors; assay: Notch-RNAi induced ISC tumor formation (Esg^ts>UAS-Notch-RNAi flies); type: in vivo, Drosophila
Protocol: (§1) Newly eclosed flies (˜24 hr) were collected and allowed to mate for 48 hr. Female and male flies were separated and maintained at a density of 30-35 flies per vial in a humidified, temperature-controlled (25° C.) incubator with a 12-hour light-dark cycle. For starvation analysis, flies were aged for 7 days in vials containing indicated diets and then transferred to 1% agar in a humidified, temperature-controlled incubator with 12-hour light-dark cycle at 25° C. Death was scored every 1-2 days, with live flies transferred to fresh vials every 2-3 days. Statistical significance was determined by log-rank analysis.
Ese^ts>UAS-Notch-RNAi flies were reared at 18° C. Upon eclosion flies were collected, sexed and placed on media containing 0.05 mM 2,4 DNP, or ethanol vehicle food at 30° C. Time-points of day 0, 8, and 16 days were taken. Intestines were dissected, fixed, and stained as above pHH3 protocol, with anti-GFP (cell signaling) and 1.5 μg/mL Hoechst stain. Quantification of GFP area was performed by using the ImageJ count particle tool in the GFP channel normalized to total area of the posterior midgut that was imaged. 7-13 guts were used for each condition and timepoint.

[4] = system: Drosophila; assay: Lifespan analysis of flies fed drug-supplemented adult medium; type: in vivo; settings: for median lifespan of control flies versus dose / median lifespan of per^01 null mutants versus dose: varying concentrations fed during adulthood; for lifespan of per^01 mutants / median lifespan of per^01 null mutants versus dose: per^01 null mutants; for lifespan of per^01 mutants: dietary DNP or BHT; for lifespan: wild-type (control) male flies, dietary 2,4 DNP 0.01-0.1 mM or BHT 0.1-1 mM vs ethanol vehicle
Protocol: Drosophila were reared from embryos in low-density bottles with standard medium containing 3.8% glucose, 1.9% sucrose, 3% yeast nutritional flake (Lab Scientific), 6.5% cornmeal, 0.8% agar, supplemented with 1.5% methylparaben mix (10% methylparaben in ethanol) and 1% propionic acid. Adult flies that eclosed within a 24 hour period were collected and transferred to “adult medium” containing 3.8% glucose, 1.9% sucrose, 8% cornmeal, 1% agar, and either 0.01%, 0.5%, 3%, 5%, or 10% yeast extract (Difco) supplemented with 1.5% methylparaben mix and 1% propionic acid for lifespan and biochemical analysis. All percentages given in wt/v except methylparaben mix, propionic acid given in v/v.
All drugs were supplemented into cooled (65° C.) liquid adult medium (containing 3% yeast extract) following preparation to the following final concentration(s): RU486 100μg/mL. RU486 (Cayman Chemical) dissolved in ethanol was supplemented into medium after eclosion at a final concentration of 100 μg/mL (with the exception of DaGS>UAS-Ucp4c and controls, 5 μg/mL) vehicle controls were supplemented with same volume of ethanol alone. Developmental induction was achieved by adding RU486 at concentration of 5 μg/mL, or ethanol vehicle, followed by adults being aged on standard food containing no RU486. For uncoupler feeding 2,4 DNP or BHT purchased from Sigma was dissolved in ethanol fresh at the time of making food and added in to the media, at the indicated concentrations. 2,4 DNP (0.01-0.1 mM) and BHT (0.1-1 mM).
as §1

SMILES | respiration (relative CO2 production) of control flies [1] | respiration (relative CO2 production) of per^01 mutants [1] | lifespan of per^01 mutants [4] | median lifespan of per^01 null mutants versus dose [4] | lifespan [4] | other results
CC[C@H]1/C=C/C=C/C[C@@H](C)[C@H](O)[C@@](C)(O)C(=O)[C@@H](C)[C@H](O)[C@@H](C)C(=O)[C@@H](C)[C@H](O)[C@@H](C)/C=C/C(=O)O[C@@H]2[C@H](C)[C@H](CC1)O[C@]1(CC[C@H](C)[C@H](C[C@@H](C)O)O1)[C@H]2C [oligomycin] | inhibited the CO2 output of both control and per^01 animals to a similar degree | inhibited the CO2 output of both control and per^01 animals to a similar degree | – | – | – | –
O=[N+]([O-])c1ccc(O)c([N+](=O)[O-])c1 [DNP, 2,4-dinitrophenol] | increased the respiration of control flies to levels similar to those of per^01 mutants | did not increase the respiration of per^01 mutants | did not extend the lifespan of per^01 mutants | no median lifespan increase was observed | extended the lifespan of wild-type male flies in a dose-dependent manner | age-related esg+ cell overproliferation (esg+ cell count) [2]: reduced; mitochondrial ROS output of ISC/EB populations (MitoSOX staining in GFP-marked ISCs/EBs) [2]: reduced; mitochondrial ROS output of the entire posterior midgut (MitoSOX staining) [2]: reduced; age-related esg+ cell overproliferation (esg+ cell count) ([2]; listed as 2,4 DNP): fewer esg+cells; mitochondrial ROS output of ISC/EB populations (MitoSOX staining in GFP-marked ISCs/EBs) ([2]; listed as 2,4 DNP): decreased MitoSOX staining specifically in ISCs/EBs; mitochondrial ROS output of the entire posterior midgut (MitoSOX staining) ([2]; listed as 2,4 DNP): decreased Mitosox staining of the entire posterior midgut; progression of ISC tumors (GFP+ area in the midgut) ([3]; 0.05 mM 2,4 DNP in media vs ethanol vehicle, 30° C., day 0, 8, 16): slowed the progression of ISC tumors; also recorded: delayed tumor formation; lifespan of flies with Notch-induced tumor formation ([3]; dietary 2,4 DNP vs vehicle): extended the shortened lifespan of these animals; also recorded: extended lifespans; median lifespan of control flies versus dose ([4]; listed as 2,4 DNP): increased their median lifespan in a dose-dependent manner
CCCCCCCCCCCCCCCCCC(=O)O [stearic acid] | increased the respiration of control flies to levels similar to those of per^01 mutants | did not increase the respiration of per^01 mutants | – | – | – | –
Cc1cc(C(C)(C)C)c(O)c(C(C)(C)C)c1 [BHT, butylated hydroxytoluene] | – | – | did not extend the lifespan of per^01 mutants | no median lifespan increase was observed | extended the lifespan of wild-type male flies in a dose-dependent manner; also recorded: increased lifespan compared to vehicle-fed controls | median lifespan of control flies versus dose [4]: increased their median lifespan in a dose-dependent manner
CC#C[C@]1(O)CC[C@H]2[C@@H]3CCC4=CC(=O)CCC4=C3[C@@H](c3ccc(N(C)C)cc3)C[C@@]21C [RU486, mifepristone] | – | – | – | – | – | lifespan on RU486 administration (induces constitutive overexpression of UCPs) ([4]; RU486-inducible UCP overexpression (DaGS>UAS-Ucp4C flies)): increased lifespan
C=C(C)[C@H]1Cc2c(ccc3c2O[C@@H]2COc4cc(OC)c(OC)cc4[C@@H]2C3=O)O1 [rotenone] | inhibited the CO2 output of both control and per^01 animals to a similar degree | inhibited the CO2 output of both control and per^01 animals to a similar degree | – | – | – | –
